The values below come from patent US10316025B2, “Substituted piperazine compounds and methods of use and use thereof” (SUNSHINE LAKE PHARMA CO., LTD., priority 2015, dated 2019).

Series [1] in a line: Pharmacokinetic evaluation in rats after intravenous or gavage administration. It counts as in vivo, SD rats. The note with it: for AUC(0-inf) / AUC(0-t) / Cmax / Tmax / clearance / half-life / Vd: SD, rat, plasma; for Vd: read-out: Vss. How it is done:
The pharmacokinetic evaluation of the compound disclosed herein in rats, dogs and monkeys was carried out in this invention, and animal information as described in Table 1.
The compounds disclosed herein were administered in form of a saline solution containing 5% DMSO, 5% Kolliphor HS 15, 2% (2% HCl) and 88% Saline, or a physiological saline solution containing 10% DMSO, 10% Kolliphor HS 15 and 80% physiological saline to an animal subject. The animals of the intravenous administration group were administered at a dose of 1 mg/kg, and 0.3 mL of vein blood samples were collected at the time points of 0, 0.083, 0.25, 0.5, 1.0, 2.0, 5.0, 7.0 and 24 h after drug administration, then each blood sample was processed to separate plasma by centrifugation at 3000 rpm or 4000 rpm for 10 minutes, and the plasma samples were collected and stored at −20° C. or −70° C. The animals of the gavage administration group were administered at a dose of 2.5 mg/kg, and 0.3 mL of vein blood samples were collected at the time points of 0, 0.083, 0.25, 0.5, 1.0, 2.0, 5.0, 7.0 and 24 h after drug administration, then each blood sample was processed to separate plasma by centrifugation at 3000 rpm or 4000 rpm for 10 minutes, and the plasma samples were collected and stored at −20° C. or −70° C.
The above plasma was analyzed by the LC/MS/MS system.
The LC/MS/MS system for the analysis comprises an Agilent 1200 Series Vacuum Degasser, binary syringe pumps, a well-plate autosampler, a column oven and an Agilent G6430A Triple Quadrupole Mass Spectrometer equiped with an electrospray ionization (ESI) source.
Analysis was performed on waters XBridge C18 (2.1×50 mm, […] column, and 5 μL of sample was injected). Conditions of the analysis comprise: a mobile phase consisting of mobile phase A (water, 2 mM ammonium formate and 0.1% formic acid) and mobile phase B (methanol, 2 mM ammonium formate and 0.1% formic acid). A flow rate of 0.4 mL/min.

In series [2] the target is T1, human 5-HT transporters (SERT) (Homo sapiens, UniProt P31645).
T1 construct: expressed in transfected cells; host or cells: CHO cells (membrane homogenate)
The experiment in a line: Affinity to CHO cells-transfected human-derived 5-HT transporter ([3H]imipramine binding). The note with it: 2 nM [3H]imipramine, CHO cell membrane homogenate, 22°C, 60 min. How it is done:
To a mixed system of cell membrane homogenate protein (12 μg), 2 nM of [^3H] imipramine and buffer solution (50 mM of Tris-HCl (pH 7.4), 120 mM of NaCl, 0.5 mM of KCl and 0.1% BSA) was added or not added the test compound at 22° C., and then the resulting mixture was incubated for 60 minutes.
To the mixed system mentioned above was added 10 μM of imipramine for measuring nonspecific binding values.
After incubation, the samples were filtered rapidly in vacuo with a 96-sample cell harvester (Unifilter, Packard) through glass-fiber filters (GF/B, Packard) pre-soaked with 0.3% PEI and rinsed several times with an ice-cold 50 mM of Tris-HCl and 150 mM of NaCl. The filters were dried and the retained radioactivity was measured by means of a scintillation counter (Topcount, Packard) using a scintillation cocktail (Microscint O, Packard). Each experimental result was expressed as a percentage inhibition of radioactive ligand specific binding relative to control groups.
The standard reference compound was imipramine, and ICso values were calculated by the competitive curve obtained from a series of concentrations of the experimental test. The experimental results of the affinity of the compounds disclosed herein to human 5-HT transporters (SERT) were listed in Table A.

Another series concerns the target T2, 5-HT1A receptors (Homo sapiens, UniProt P08908).
T2 construct: host or cells: human HEK-293 cell homogenates
T2 sequence (P08908 1-422): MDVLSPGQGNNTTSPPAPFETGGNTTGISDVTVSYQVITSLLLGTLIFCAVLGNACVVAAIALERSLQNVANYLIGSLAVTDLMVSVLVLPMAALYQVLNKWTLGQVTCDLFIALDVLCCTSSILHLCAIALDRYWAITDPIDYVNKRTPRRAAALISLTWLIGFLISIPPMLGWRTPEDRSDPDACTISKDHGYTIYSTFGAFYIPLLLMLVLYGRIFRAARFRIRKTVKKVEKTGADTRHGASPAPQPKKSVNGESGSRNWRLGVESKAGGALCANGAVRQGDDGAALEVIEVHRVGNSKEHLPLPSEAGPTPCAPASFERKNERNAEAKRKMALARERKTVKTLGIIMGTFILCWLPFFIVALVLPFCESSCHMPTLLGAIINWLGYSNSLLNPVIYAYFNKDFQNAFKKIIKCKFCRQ
The experiment in a line: h5-HT1A binding affinity test ([3H]8-OH-DPAT, HEK-293 cell homogenates). The note with it: 0.3 nM [3H]8-OH-DPAT, 22°C, 60 min, Ki from IC50 by ChengPrusoff equation. How it is done: Human HEK-293 cell homogenates (36 μg of protein) were incubated at 22° C. for 60 minutes with 0.3 nM of [^3H]8-OH-DPAT (Perkin-Elmer) in the absence or presence of the test compound in a buffer solution containing 50 mM of Tris-HCl (pH 7.4), 10 mM of MgSO4, 0.5 mM of EDTA and 2 μg/mL aprotinine.
The non-specific binding value was determined by incubating the same mixture in the presence of 10 μM of 8-OH-DPAT, which was used as the standard reference compound. Competitive curve was obtained by testing data of 8-OH-DPAT in each experiment at several concentrations.
The incubated samples were filtered fastly using a 96-sample cell harvester (Unifilter, Packard) through fiberglass filter membranes (GF/B, Packard) pre-soaked with 0.3% PEI in vacuo, and washed several times with an ice cold 50 mM of Tris-HCl. The filter membranes were dried and the retained radioactivity was measured in a scintillation counter (Topcount, Packard) using a scintillation cocktail (Microscint 0, Packard). The experimental results were expressed as inhibition percentage of radioactive ligand specific binding relative to control groups.
The experiments of combining [^3H]8-OH-DPAT (0.3 nM) with 5-HT1A receptors of human HEK-293 cells were accomplished by using Scintillation Proximity Assay on membrane. The test compounds were required to be tested at least three times in the case of a concentration of more than 6 log, and the data were analyzed by the method of nonlinear regression using Hill equation curve to obtain an IC50 value, and then the IC50 value was calculated by ChengPrusoff equation to obtain a Ki value.

T1 sequence (P31645 whole entry): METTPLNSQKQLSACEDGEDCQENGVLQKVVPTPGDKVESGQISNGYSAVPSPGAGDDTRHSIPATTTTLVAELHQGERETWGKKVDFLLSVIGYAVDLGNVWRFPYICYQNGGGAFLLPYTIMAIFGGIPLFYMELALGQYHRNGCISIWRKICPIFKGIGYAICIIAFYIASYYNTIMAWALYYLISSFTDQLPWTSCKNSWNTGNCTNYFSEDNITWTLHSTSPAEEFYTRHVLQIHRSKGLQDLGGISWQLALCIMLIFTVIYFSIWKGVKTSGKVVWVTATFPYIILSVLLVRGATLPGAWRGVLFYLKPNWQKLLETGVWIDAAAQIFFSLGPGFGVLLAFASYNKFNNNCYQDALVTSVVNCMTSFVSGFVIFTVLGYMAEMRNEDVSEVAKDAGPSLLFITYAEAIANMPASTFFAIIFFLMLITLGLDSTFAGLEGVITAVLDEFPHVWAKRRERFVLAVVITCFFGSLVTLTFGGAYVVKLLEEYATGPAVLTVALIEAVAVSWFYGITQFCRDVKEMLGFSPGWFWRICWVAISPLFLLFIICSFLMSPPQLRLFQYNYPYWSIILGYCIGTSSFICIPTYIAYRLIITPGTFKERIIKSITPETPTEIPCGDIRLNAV

What is called AUC(0-inf) is the area under the concentration-time curve extrapolated to infinity. A high value points to more exposure. The AUC(0-t) is exposure summed from dosing to a finite time, without extrapolation to infinity. Low readings indicate less exposure, high ones more exposure. In general, Cmax refers to the highest concentration seen after dosing. What is called Tmax is the time from dosing to the highest level. The half-life is the time needed for the level to fall by half in the phase considered. A low value points to rapid decline. By IC50 is commonly meant the midpoint of a concentration-inhibition curve. Read a high IC50 as lower potency. By Ki is commonly meant the dissociation constant of the complex between target and ligand, obtained from inhibition or displacement. Read a high Ki as weaker binding. Turning to `N#Cc1ccc2[nH]cc(CCCCN3CCN(c4ncc(-c5ccc(F)cc5F)cn4)CC3)c2c1` [Example 13, 3-(4-(4-(5-(2,4-difluorophenyl)pyrimidin-2-yl)piperazin-1-yl)butyl)-1H-indole-5-carbonitrile], in series [1] (iv, 1 mg/kg), the AUC(0-inf) is 724 ng·h/mL, the AUC(0-t) amounted to 643 ng·h/mL, the Cmax was determined as 330 ng/mL and the Tmax was found to be 0.083 h. In series [1] (iv, 1 mg/kg), the clearance is 23.8 mL/min/kg, the half-life is 3.9 h and the Vd came out at 6 L/kg. For the same compound, in series [1] (po, 2.5 mg/kg), the AUC(0-inf) turned out to be 1160 ng·h/mL, the AUC(0-t) is 1070 ng·h/mL, the Cmax stood at 152 ng/mL and the Tmax turned out to be 1 h. Moreover, in series [1] (po, 2.5 mg/kg), the half-life was 4.14 h and the F is 66.4%. In addition, the IC50 in series [2] worked out at 1.2 nM. The Ki at 5-HT1A receptors stood at 1.3 nM.

`N#Cc1ccc2[nH]cc(CCCN3CCN(c4ncc(-c5ccc(F)cc5F)cn4)CC3)c2c1` [Example 14, 3-(3-(4-(5-(2,4-difluorophenyl)pyrimidin-2-yl)piperazin-1-yl)propyl)-1H-indole-5-carbonitrile]: in series [1] (iv, 1 mg/kg), the AUC(0-inf) amounted to 1500 ng·h/mL, the AUC(0-t) amounted to 1340 ng·h/mL, the highest level (Cmax) was 193 ng/mL and the Tmax amounted to 0.25 h. In series [1] (iv, 1 mg/kg), the clearance was 11.6 mL/min/kg, the half-life was 7.53 h and the Vd was found to be 6.41 L/kg. Moreover, in series [1] (po, 2.5 mg/kg), the area under the curve AUC(0-inf) turned out to be 3130 ng·h/mL, the AUC(0-t) was 2790 ng·h/mL, the highest level (Cmax) was 180 ng/mL and the Tmax was determined as 5 h. For the same compound, in series [1] (po, 2.5 mg/kg), the half-life was 7.28 h and the F came out at 83.28%. In series [2], this compound displayed an IC50 of 0.58 nM. Besides, the affinity at 5-HT1A receptors, expressed as Ki, was 0.92 nM.
